Reference: patent US20230151065A1, “MULTI-DISULFIDE-BOND LONG-CHAIN PEPTIDE WITH NEURO[…], PHARMACEUTICAL COMPOSITION AND APPLICATION” (priority 2018, published 2023)

Columns and labels:
[1] = test system: primary cultured hippocampal neurons damaged by NMDA; assay: NMDA damage of primary cultured hippocampal neurons, MTT viability; type: cell-based, SD (Sprague-Dawley) rat; settings: for hippocampal neuron activity after NMDA damage (MTT): MK801 10 μM
Source text: (1) Establishment of NMDA damage model. Primary culture of hippocampal neurons: SD (Sprague-Dawley) female rats pregnant for 18-19 days were anesthetized with a compound anaesthetic agent; fetal rat brains were taken under aseptic conditions and placed in HBSS solution (8.4 g/L of NaCl, 0.224 g/L of KCl, 2.38 g/L of HEPES, 500,000 units of penicillin sodium and 500,000 units of kanamycin sulfate; the pH was adjusted to 7.1-7.2 with 1M NaOH; then the osmotic pressure was adjusted to about 290±10 m Osm with ultrapure water; and after filtration, the solution was stored at 4° C.); the meninges were removed under a stereoscopic dissecting microscope; the bilateral hippocampus was removed and digested in 0.125% pancreatic protease at 37° C. for 10 min; and complete media (90% DMEM medium+10% FBS) (FBS: fetal bovine serum) was used to terminate the digestion; the bilateral hippocampus was washed for 3 times with the complete media to make a single cell suspension; the cell density was adjusted to about 7-8×10^5/ml; and the bilateral hippocampus was inoculated to a 6-well/96-well cell culture plate/60 mm culture dish/slide coated with L-polylysine. After 24 hours, the media were changed to serum-free neurobasal media (GIBCO) which were then placed in a 5% CO2, 37° C. incubator for culture; and half of the solution was changed every three days.
(2) NMDA damage treatment of hippocampal neurons: (1) The original media were sucked out and the cells were washed with magnesium-free extracellular fluid for three times, each for 5 minutes. (2) 10 mM NMDA (N-methyl-D-aspartic acid) and 10 mM Gly (glycine) were prepared with magnesium-free extracellular fluid, and NMDA was prepared to different concentrations with the magnesium-free extracellular fluid, wherein the final concentration of Gly was 10 μM. […] After damage, the cells were washed for three times with DMEM medium, each for 5 minutes. (3) The original culture media were re-added to continue for culturing for 24 hours.
(3) Detection of viability of hippocampal neurons after NMDA damage: (1) The hippocampal neurons were inoculated into a 96-well culture plate at 8×10^5 cells/ml, 0.1 ml per well, and cultured in a 5% CO2 incubator for 7-8 days. (2) After NMDA damage treatment and continuous culture for 24 hours, the culture solution was sucked off. (3) 100 μl of DMEM culture medium containing MTT (3-(4,5-dimethylthiazole-2)-2,5-diphenyltetrazolium bromide, 0.5 mg/ml) was added to each well, and the culture plate was put into 37° C., 5% CO2 incubator for culturing for 4 h. (4) 100 μl of 20% SDS was added to each well (20 g of sodium lauryl sulfate was dissolved in 50 ml of ddH2O+50 ml of N,N dimethylformamide) at 37° C. for 20 h. (5) The solution was shaken on a horizontal shaker for 5 min. (6) The optical density (OD) was measured at 570 nm (reference wavelength of 490 nm) on a microplate reader.
(6) Effect of ABPPk2 on decrease of hippocampal neuron activity caused by NMDA. Effect of different concentrations of ABPPk2 on hippocampal neuron damage caused by NMDA (100 μM, 30 min). The experiment was divided into 9 experimental groups: a normal group, NMDA (100 μM, 30 min) group (as a control group), ABPPk2 (0.01 μg/ml) group, ABPPk2 (0.1 μg/ml) group, ABPPk2 (0.3 μg/ml) group, ABPPk2 (1 μg/ml) group, ABPPk2 (3 μg/ml) group, ABPPk2 (10 μg/ml) group and MK801 (dizocilpine, 10 μM) group (as a positive control group). Three administration ways were adopted for ABPPk2: (1) ABPPk2 was administered 12 hours before and during the NMDA damage. (2) ABPPk2 was administered during NMDA damage. (3) ABPPk2 was administered during 24 hours of culture after NMDA damage.

[2] = test system: primary cultured SD fetal rat cortical neurons after OGD damage; assay: OGD damage of cortical neurons, Hoechst 33258 staining of apoptotic bodies; type: cell-based; settings: OGD 2 h, 24 h reoxygenation; ABPPk2 8, 40, 200 ng/ml, dose-dependent; BDNF 10 ng/ml
Procedure: The suspension was filtered with a 400-mesh screen, centrifuged at 1000 rpm for 5 min, and blown to form the single cell suspension. DMEM high glucose complete medium (containing 10% fetal bovine serum) was inoculated in a culture dish or culture plate pre-coated with polylysine (PLL) to culture in 5% CO2 incubator with saturated humidity at 37° C. After the cells were cultured for 4 h to adhere to the wall, the cells were cultured with neuron culture medium (neurobasal+2% B27) for 3 d to observe the growth of neurons. The culture medium containing cytarabine (the final concentration of cytarabine was 2.5 μg/ml) was substituted with half quantity to culture for 3d to inhibit the growth of glial cells and miscellaneous cells to obtain purely cultured primary cortical nerve cells. The purity of the cortical neurons was identified by immunocytochemical staining as more than 90%.
After the cortical neurons were cultured to the 7th day, the original culture medium was sucked out, and the cells were rinsed twice with sugar-free DMEM basal medium, for 5 min each time. Each OGD damage group was added with DMEM sugar-free culture medium, placed in a Billups-Rothenberg anaerobic culture chamber, filled with 95% N2/5% CO2 to balance for 15 min, and sealed for 2 h to build an OGD model. […]

## C[C@]12N[C@H](Cc3ccccc31)c1ccccc12 [MK801, dizocilpine, reference compound]
[1]; given 12 h before and during NMDA (100 μM, 0.5 h), ABPPk2 0.1, 0.3 and 1 μg/ml groups
  hippocampal neuron activity after NMDA damage (MTT): can effectively reduce the decrease of hippocampal neuron activity caused by NMDA damage
[1]; given during 24 h culture after NMDA damage (100 μM, 0.5 h), ABPPk2 0.1-10 μg/ml
  hippocampal neuron activity after NMDA damage (MTT): can effectively reduce the decrease of hippocampal neuron activity caused by NMDA damage
[1]; given during NMDA damage (100 μM, 0.5 h), ABPPk2 1 and 10 μg/ml groups
  hippocampal neuron activity after NMDA damage (MTT): can effectively reduce the decrease of hippocampal neuron activity caused by NMDA damage

## CLETSGSCIPGAQHNCCSGVCVPLVTLFYGVCY (Achyranthes bidentata Blume) [SEQ ID No: 3]
[1]; overall statement, experimental solution of embodiment 6, concentration and administration way not stated
  protective effect on NMDA damage of primary hippocampal neurons: can effectively reduce the decrease of hippocampal neuron activity caused by NMDA damage

B1: BDNF: positive control group, final concentration of 10 ng/ml (protein, UniProt P23560 19-247, looked up)
Neurotrophic factor BDNF …: APMKEANIRGQGGLAYPGVRTHGTLESVNGPKAGSRGLTSLADTFEHVIEELLDEDQKVRPNEENNKDADLYTSRVMLSSQVPLEPPLLFLLEEYKNYLDAANMSMRVRRHSDPARRGELSVCDSISEWVTAADKKTAVDMSGGTVTVLEKVPVSKGQLKQYFYETKCNPMGYTKEGCRGIDKRHWNSQCRTTQSYVRALTMDSKKRIGWRFIRIDTSCVCTLTIKRGR
[2]
  apoptotic bodies of cortical neuron nuclei: the apoptotic bodies are reduced
